Source: patent US11561217B2, “Compounds inhibiting Nef-calnexin interaction” (The George Washington University, a Congressionally …, priority 2016, dated 2023)
“Also recorded” adds a separate entry of the source.

Tests used:
Nef/CNX interaction = target: T1, Nef/CNX interaction (Human immunodeficiency virus type 1 group M subtype B, UniProt P03406); assay: Co-immunoprecipitation of Nef and calnexin in transfected HEK293T cells; type: cell-based, HIV-1; settings: for inhibition of co-immunoprecipitation of Nef and calnexin: added 6 h post-transfection, lysed 48 h post-transfection, HEK293T
T1 construct: expressed in transfected cells; host or cells: HEK293T
Method: (§1) To test whether the compounds identified in the virtual screen can interfere with Nef/CNX interaction, a co-immunoprecipitation assay was performed. HEK293T cells were transfected with plasmid encoding for NefBRU and 6 h post-transfection were treated with NSC 1758 (4 μM), NSC 13987 (5 μM), or NSC 92938 (5 μM). These concentrations of the compounds were determined by the MTT assay to reduce cell metabolism by less than 10% during 5-day incubation (FIG. 6C). […] It was previously shown that membrane localization of Nef is important for interaction of Nef with calnexin (5). In order to rule out the possibility that the compound interferes with membrane localization of Nef, it was tested whether NSC 13987 affects interaction between Nef and ABCA1, as ABCA1/Nef interaction also requires membrane localization of Nef (1).
Their overall location in the structural alignment with the model of Nef-CNX complex is shown as translucent molecular surface. […] The set of compounds includes NSC 1758, NSC 13987, and NSC 92938 selected for experimental testing. b, Compound NSC 13987 docked to Nef binding site, which is centered on Lys4 and Lys7. Interactions of the compound with Nef include two hydrogen bonds with Nef amino acid residues Ser6 and Tyr124. […] THP-1 cells were treated with indicated compounds for 5 days and cytotoxicity was measured using MTT assay. In panel (D), HEK 293T cells were transfected with HA-tagged Nef, treated with compounds NSC 1758, NSC 13987 or NSC 92938, and lysed. Nef was immunoprecipitated using anti-HA agarose beads and bound complexes were immunoblotted for Nef and calnexin (left panels labeled IP: aIIA). Densitometric quantification of calnexin co-immunoprecipitation with Nef is presented in the right panel. Error bars indicate +/−SD of 3 independent experiments, and p values are shown above the bars. Whole cell lysates were analyzed for amount of calnexin, Nef and GAPDH (left panels labeled Lysate). In panel (E), HEK293T cells were co-transfected with ABCA1-FLAG and NefBRU and treated with compound NSC 13987. Cells were lysed 48 h post-transfection and ABCA1-FLAG was immunoprecipitated using anti-FLAG beads. Precipitated complexes were blotted for ABCA1 and Nef (top panels). Input amount was analyzed from whole cell lysates by immunoblotting for ABCA1, Nef and GAPDH (bottom panels).
Immunoprecipitation—For calnexin mutant/Nef interaction analysis, HEK293T cells were transfected with HA-tagged calnexin mutants and NefBRU expression plasmid. Cells were lysed 48 h post-transfection with 1% IGEPAL and 0.1% SDS lysis buffer on ice for 30 min. Lysates were incubated with anti-HA agarose beads for 2 h at 4° C. with rotation. Respective immunoprecipitates were washed three times with TBS (150 mM NaCl, 30 mM Tris-HCl, 5 mM EDTA, pH 7.5). […]

[1] = test system: THP-1 cells transfected with Nef; assay: apoA-I specific cholesterol efflux in Nef-transfected THP-1 cells; type: cell-based; settings: THP-1, PMA-activated, compared to DMSO-treated Nef expressing cells
Method: Next, it was tested whether the three compounds could prevent impairment of cholesterol efflux by Nef. THP-1 cells were transfected with a Nef encoding plasmid and drug treatment was started 6 h after transfection. The following day cells were activated with PMA after which cholesterol efflux assay was performed. Drug treatment was continued throughout the duration of the experiment. […] Cholesterol efflux in Nef-transfected untreated or DMSO-treated cells was reduced by over 2-fold relative to mock-transfected cells.
Specifically, in panel (A) THP-1 cells were transfected with Nef and incubated with compounds NSC 1758, NSC 13987 and NSC 92938 or DMSO, and cholesterol efflux was measured 5 days post-transfection. Error bars show SEM. In panel (B) primary macrophages were infected in triplicate with HIV-1 ADA. Compound NSC 13987 (5 μM) or DMSO was added 3 days after infection and maintained thereafter, and virus replication was monitored by measuring RT-activity in the supernatant over a 14-day period. […] In panel (C) primary macrophages were infected with HIV-1 ADA or mock-infected and treated with DMSO or NSC13987 as in panel B. Cholesterol efflux was measured 14 days post-infection. […]
(§2) Cholesterol Efflux—Infected cells were seeded in a 24-well plate and labeled with [^3H] cholesterol for 48 h. […] Level of radioactivity in the media as well as in the cells was determined by scintillation counting. […]

HIV-1 ADA = HIV-1 ADA replication in monocyte-derived macrophages (RT activity in supernatant); type: cell-based
Method: (§3) To test the effect of NSC 13987 in the context of natural infection, monocyte-derived macrophages (MDM) were infected with HIV-1 ADA, treated with NSC 13987 and cholesterol efflux was measured.
(§4) Specifically, in panel (A) THP-1 cells were transfected with Nef and incubated with compounds NSC 1758, NSC 13987 and NSC 92938 or DMSO, and cholesterol efflux was measured 5 days post-transfection. Error bars show SEM. In panel (B) primary macrophages were infected in triplicate with HIV-1 ADA. Compound NSC 13987 (5 μM) or DMSO was added 3 days after infection and maintained thereafter, and virus replication was monitored by measuring RT-activity in the supernatant over a 14-day period. Results of 3 measurements are shown as mean ±SEM. *, p<0.005; **, p<0.007. In panel (C) primary macrophages were infected with HIV-1 ADA or mock-infected and treated with DMSO or NSC13987 as in panel B. Cholesterol efflux was measured 14 days post-infection. Error bars show SEM.

[2] = test system: monocyte-derived macrophages (MDM) infected with HIV-1 ADA; assay: Cholesterol efflux from HIV-1 ADA infected monocyte-derived macrophages; type: cell-based; settings: 14 days post-infection, versus mock-infected cells
Method: as §3, §4
as §2, with “counting. Cholesterol efflux was calculated as the percentage of radioactivity in the media divided by the total amount measured in the cells and media.” for “counting.”

ABCA1 = ABCA1 abundance in the presence of Nef; type: cell-based
ABCA1/Nef interaction = target: T2, ABCA1/Nef interaction (Human immunodeficiency virus type 1 group M subtype B, UniProt P03406); assay: Co-immunoprecipitation of ABCA1-FLAG and Nef in HEK293T cells; type: cell-based, HIV-1; settings: HEK293T co-transfected with ABCA1-FLAG and NefBRU, lysed 48 h post-transfection
T2 construct: expressed in transfected cells; host or cells: HEK293T
Method: as §1
Their overall location in the structural alignment with the model of Nef-CNX complex is shown as translucent molecular surface. […] THP-1 cells were treated with indicated compounds for 5 days and cytotoxicity was measured using MTT assay. […] Densitometric quantification of calnexin co-immunoprecipitation with Nef is presented in the right panel. […] Whole cell lysates were analyzed for amount of calnexin, Nef and GAPDH (left panels labeled Lysate). […] Input amount was analyzed from whole cell lysates by immunoblotting for ABCA1, Nef and GAPDH (bottom panels).

[3] = target: T3, cytoplasmic tail of CNX (CNX-CT) (Homo sapiens, UniProt P27824); assay: Surface plasmon resonance, immobilized calnexin cytoplasmic tail; type: binding; settings: myristoylated Nef injected at 6.25-200 nM, 25° C.
T3 construct: the C-terminal (cytoplasmic) domain of CNX (CNX-CT) were captured on CMS chips by amine coupling; His-tag (N); SUMO domain (N); made in house; host or cells: E. coli BL21 DE
T3 sequence (P27824 503-592 limits assumed): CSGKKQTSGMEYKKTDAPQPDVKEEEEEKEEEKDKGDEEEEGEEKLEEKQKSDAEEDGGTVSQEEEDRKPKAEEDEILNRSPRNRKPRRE
Method: (§5) Binding of myristoylated NefsF2 (33) to CNX and its cytoplasmic domain was analyzed using surface plasmon resonance (FIGS. 5B,C). CNX and CNX-CT were immobilized on microchip surfaces and myristoylated Nef was injected over the surface.
Steps of full-length CL7-tagged calnexin (CNX-CL7) purification are shown in detail. Whole cell lysate (WCL) was centrifuged to remove cell debris, the supernatant (SN) was treated with 0.07% polyethylene-emine (PE) to precipitate DNA, the pellet (PL), which contained most of CNX protein, was washed with detergent-containing buffer to release CNX into solution, centrifuged and the resulting supernatant was loaded on Immunity protein 7 (Im7) column. […] ACNX—truncated CNX fragment; SUMO—SUMO domain; P(PSC), P(SUMOP)—cleavage sites for the PSC and SUMO proteases, respectively; H8—8-Histidine tag (SEQ ID NO: 2). In panels (B) and (C), surface plasmon resonance experiments were done in a Biacore T-200 by using a CMS chip. […] Lines representing actual data and a curve fit to a […] analyte binding model in BiaEvaluation software are shown.
Surface Plasmon Resonance Experiments—Direct binding between purified recombinant proteins was evaluated by surface plasmon resonance technology utilizing a Biacore T-200 instrument at the Biacore Molecular Interaction Shared Resource of Georgetown University. Full length CNX and the C-terminal (cytoplasmic) domain of CNX (CNX-CT) were captured on CMS chips by amine coupling. Three surfaces of CM5 chip were activated by NHS/CDC (N-hydroxysuccinimide/1-ethyl-3-(3-dimethylaminopropyl)carbodiimide hydrochloride) for 720 sec. Flow cell 1 was left empty as a reference surface. Full length CNX and CNX-CT were diluted in 10 mM sodium acetate (pH 4.0) buffer at 1.8 μM and 10.6 μM, respectively, and captured on flow cell 3 and flow cell 2, at 3200 RU and 16600 RU, respectively. After protein capture, all 3 flow cells were inactivated by 720 sec injection of 1 M ethanolamine. […] The data was analyzed by BiaEvaluation software using the bivalent analyte model.

calnexin (CNX) = target: T4, calnexin (CNX) (Homo sapiens, UniProt P27824); assay: Surface plasmon resonance, immobilized full-length calnexin; type: binding; settings: myristoylated Nef injected at 6.25-200 nM, 25° C.
T4 construct: Full length CNX and the C-terminal (cytoplasmic) domain of CNX (CNX-CT) were captured on CMS chips by amine coupling; His-tag (H8) (N); made in house; host or cells: E. coli BL21 DE
T4 sequence (P27824 21-592): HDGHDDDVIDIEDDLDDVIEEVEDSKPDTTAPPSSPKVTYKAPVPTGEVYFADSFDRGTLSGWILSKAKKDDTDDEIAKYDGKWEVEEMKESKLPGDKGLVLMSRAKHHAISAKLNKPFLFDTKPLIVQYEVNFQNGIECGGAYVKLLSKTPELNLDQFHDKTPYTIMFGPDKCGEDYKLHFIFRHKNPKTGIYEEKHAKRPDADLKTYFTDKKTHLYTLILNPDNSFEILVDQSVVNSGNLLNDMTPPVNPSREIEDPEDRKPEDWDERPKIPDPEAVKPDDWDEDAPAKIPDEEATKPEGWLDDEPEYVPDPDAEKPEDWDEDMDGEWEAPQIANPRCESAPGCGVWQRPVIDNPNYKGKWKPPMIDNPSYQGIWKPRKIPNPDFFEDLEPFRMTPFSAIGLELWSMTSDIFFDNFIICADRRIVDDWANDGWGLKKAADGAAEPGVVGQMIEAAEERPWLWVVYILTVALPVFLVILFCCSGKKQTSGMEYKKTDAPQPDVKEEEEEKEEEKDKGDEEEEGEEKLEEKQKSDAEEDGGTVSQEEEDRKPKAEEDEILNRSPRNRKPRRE
Method: as §5
Steps of full-length CL7-tagged calnexin (CNX-CL7) purification are shown in detail. Whole cell lysate (WCL) was centrifuged to remove cell debris, the supernatant (SN) was treated with 0.07% polyethylene-emine (PE) to precipitate DNA, the pellet (PL), which contained most of CNX protein, was washed with detergent-containing buffer to release CNX into solution, centrifuged and the resulting supernatant was loaded on Immunity protein 7 (Im7) column. […] ACNX—truncated CNX fragment; SUMO—SUMO domain; P(PSC), P(SUMOP)—cleavage sites for the PSC and SUMO proteases, respectively; H8—8-Histidine tag (SEQ ID NO: 2). In panels (B) and (C), surface plasmon resonance experiments were done in a Biacore T-200 by using a CMS chip. […]
Surface Plasmon Resonance Experiments—Direct binding between purified recombinant proteins was evaluated by surface plasmon resonance technology utilizing a Biacore T-200 instrument at the Biacore Molecular Interaction Shared Resource of Georgetown University. […] The data was analyzed by BiaEvaluation software using the bivalent analyte model.

T2 sequence (O95477 whole entry, other chains not shown): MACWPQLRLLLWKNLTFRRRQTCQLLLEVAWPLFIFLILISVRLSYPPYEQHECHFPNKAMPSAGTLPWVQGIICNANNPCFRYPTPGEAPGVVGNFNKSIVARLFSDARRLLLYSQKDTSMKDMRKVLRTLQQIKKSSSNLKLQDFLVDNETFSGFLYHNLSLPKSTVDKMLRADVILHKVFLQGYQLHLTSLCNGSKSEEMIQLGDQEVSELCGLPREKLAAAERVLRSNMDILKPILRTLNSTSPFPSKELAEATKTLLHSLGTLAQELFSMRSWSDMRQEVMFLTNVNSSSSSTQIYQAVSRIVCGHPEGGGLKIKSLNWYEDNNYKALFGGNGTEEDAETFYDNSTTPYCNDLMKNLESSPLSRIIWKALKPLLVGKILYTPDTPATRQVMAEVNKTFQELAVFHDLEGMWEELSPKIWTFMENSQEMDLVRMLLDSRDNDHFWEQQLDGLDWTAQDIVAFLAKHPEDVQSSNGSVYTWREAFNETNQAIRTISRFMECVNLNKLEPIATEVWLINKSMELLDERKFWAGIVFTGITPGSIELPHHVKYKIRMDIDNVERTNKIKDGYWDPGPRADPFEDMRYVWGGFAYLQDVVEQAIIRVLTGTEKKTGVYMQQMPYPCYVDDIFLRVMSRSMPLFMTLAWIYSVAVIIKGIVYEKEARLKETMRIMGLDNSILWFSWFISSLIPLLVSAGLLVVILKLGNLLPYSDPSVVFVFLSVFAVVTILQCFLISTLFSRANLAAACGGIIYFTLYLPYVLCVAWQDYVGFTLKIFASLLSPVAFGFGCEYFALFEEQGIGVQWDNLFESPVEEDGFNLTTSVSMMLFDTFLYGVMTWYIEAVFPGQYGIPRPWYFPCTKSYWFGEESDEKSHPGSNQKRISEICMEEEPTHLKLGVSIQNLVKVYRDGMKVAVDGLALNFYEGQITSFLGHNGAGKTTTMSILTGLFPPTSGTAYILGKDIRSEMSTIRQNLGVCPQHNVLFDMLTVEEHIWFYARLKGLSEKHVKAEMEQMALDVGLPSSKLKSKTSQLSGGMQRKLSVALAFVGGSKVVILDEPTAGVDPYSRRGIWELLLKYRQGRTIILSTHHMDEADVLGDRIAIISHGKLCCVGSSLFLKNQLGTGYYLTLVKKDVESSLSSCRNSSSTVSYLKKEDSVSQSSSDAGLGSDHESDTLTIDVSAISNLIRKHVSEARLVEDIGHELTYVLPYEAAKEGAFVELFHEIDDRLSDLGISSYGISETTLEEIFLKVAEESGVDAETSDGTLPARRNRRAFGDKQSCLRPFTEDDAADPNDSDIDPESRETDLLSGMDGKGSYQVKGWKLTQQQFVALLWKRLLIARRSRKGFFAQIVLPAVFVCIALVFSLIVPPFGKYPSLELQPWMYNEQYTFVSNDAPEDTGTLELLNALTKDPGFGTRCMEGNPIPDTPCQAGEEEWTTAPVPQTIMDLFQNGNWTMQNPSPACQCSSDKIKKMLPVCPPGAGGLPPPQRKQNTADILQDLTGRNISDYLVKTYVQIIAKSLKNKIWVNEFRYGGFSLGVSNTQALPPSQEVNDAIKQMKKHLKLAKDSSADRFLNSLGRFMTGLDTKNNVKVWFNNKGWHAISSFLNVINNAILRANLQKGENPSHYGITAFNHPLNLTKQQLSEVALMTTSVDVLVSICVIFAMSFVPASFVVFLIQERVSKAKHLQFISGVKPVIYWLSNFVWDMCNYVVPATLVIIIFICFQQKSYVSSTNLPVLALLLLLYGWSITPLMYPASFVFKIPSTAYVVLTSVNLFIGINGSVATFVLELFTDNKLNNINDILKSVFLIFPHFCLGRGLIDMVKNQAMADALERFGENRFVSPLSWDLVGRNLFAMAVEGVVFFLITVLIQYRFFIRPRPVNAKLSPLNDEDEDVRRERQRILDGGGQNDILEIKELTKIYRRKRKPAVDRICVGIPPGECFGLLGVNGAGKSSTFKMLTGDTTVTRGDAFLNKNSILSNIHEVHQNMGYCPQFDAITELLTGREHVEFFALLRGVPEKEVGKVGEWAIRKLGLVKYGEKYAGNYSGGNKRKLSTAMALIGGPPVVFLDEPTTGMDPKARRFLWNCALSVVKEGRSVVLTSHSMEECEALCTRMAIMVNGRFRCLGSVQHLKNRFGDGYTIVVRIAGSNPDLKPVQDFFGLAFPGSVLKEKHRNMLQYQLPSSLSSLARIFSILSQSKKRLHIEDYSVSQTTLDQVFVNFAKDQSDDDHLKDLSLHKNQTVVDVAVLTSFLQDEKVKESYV

## N=C(Nc1cc2ccccc2c2ccccc12)Nc1cc2ccccc2c2ccccc12 [NSC 1758, 1,3-DI-9-Phenanthrylguanidine]
Nef/CNX interaction; 4 μM
  inhibition of co-immunoprecipitation of Nef and calnexin: showed a trend towards inhibiting Nef/CNX binding but did not reach statistical significance

## O=C1c2ccccc2C(=O)c2c(Nc3ccc4c5c(cccc35)C(=O)c3ccccc3-4)cccc21 [NSC 13987, 1[(7-Oxo-7H-benz[de]anthracene-3-yl)amino] anthraquinone]
Nef/CNX interaction; 5 μM
  inhibition of co-immunoprecipitation of Nef and calnexin: prevented co-precipitation of CNX with Nef
Nef/CNX interaction; HEK-293T, read-out: inhibition of co-immunoprecipitation of Nef and calnexin
  inhibition at 5 µM: > 50%
[1]
  cholesterol efflux in Nef-transfected cells: significantly increased; also recorded: restored cholesterol efflux impaired by Nef
HIV-1 ADA; 5 μM added 3 days after infection, RT activity over 14 days, primary macrophages
  viral replication in the presence of the compound: reduced
HIV-1 ADA; FIG. 7B, HIV-1 ADA in primary macrophages, 5 μM
  inhibition of viral replication: ~2 fold
[2]
  cholesterol efflux from HIV-infected cells: not significantly different from that of mock-infected cells
ABCA1
  Nef-mediated effect on ABCA1 abundance: reversed Nef-mediated effect on ABCA1 abundance
ABCA1/Nef interaction
  effect on ABCA1/Nef interaction: remained unaffected

## O=C1c2ccccc2C(=O)c2c1ccc1c2[nH]c2ccccc21 [NSC 92938, 5H-Naphtho(2,3-a)carbazole-5,13(12H)-dione]
Nef/CNX interaction; 5 μM
  inhibition of co-immunoprecipitation of Nef and calnexin: showed a trend towards inhibiting Nef/CNX binding but did not reach statistical significance

## NefSF2: myristoylated HIV-1 Nef SF2 protein injected over immobilized calnexin in surface plasmon resonance
[3]
  ka: 908300 M⁻¹ s⁻¹
  kd: 0.008569 s⁻¹
[3]; Biacore T-200, read-out: affinity (KD)
  Kd: 9.4 nM
Calnexin (CNX)
  ka: 133800 M⁻¹ s⁻¹
  kd: 0.01192 s⁻¹
